Assay results: ChEMBL document CHEMBL3301562, “MMV Box screening against Plasmodium falciparum protein kinases and aminoacyl tRNA synthetases”

Assays:
Assay type in all cases: functional
[1] = target: T1, Calcium-dependent protein kinase 4 (Plasmodium falciparum (isolate 3D7), UniProt Q8IBS5); assay: MMV: CDPK4 Protein kinase inhibition assay using recombinant PfCDPK4, syntide2 peptide substrate, ATP and KinaseGlo to measure % inhibition at 1 uM MMV box compound.
T1 sequence (Q8IBS5 whole entry): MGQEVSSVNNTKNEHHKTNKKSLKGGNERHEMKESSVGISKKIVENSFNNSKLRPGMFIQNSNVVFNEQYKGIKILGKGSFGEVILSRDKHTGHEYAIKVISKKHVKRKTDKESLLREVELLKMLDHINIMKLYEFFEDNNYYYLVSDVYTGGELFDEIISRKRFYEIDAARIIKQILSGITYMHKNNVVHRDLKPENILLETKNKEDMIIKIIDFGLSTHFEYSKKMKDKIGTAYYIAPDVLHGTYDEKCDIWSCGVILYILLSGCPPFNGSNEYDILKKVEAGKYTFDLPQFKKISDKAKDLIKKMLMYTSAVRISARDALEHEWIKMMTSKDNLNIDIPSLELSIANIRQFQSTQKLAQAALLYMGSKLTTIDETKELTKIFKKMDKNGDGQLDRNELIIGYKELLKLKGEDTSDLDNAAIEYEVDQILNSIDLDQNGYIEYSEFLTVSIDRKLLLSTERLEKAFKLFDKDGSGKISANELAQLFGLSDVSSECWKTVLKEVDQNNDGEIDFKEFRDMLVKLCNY

[2] = target: T2, Putative uncharacterized protein pk7 (Plasmodium falciparum, UniProt O96214); assay: Final concentrations were 1 uM ATP, 2 mM DTT, 20 mM MgCl2, 2 mM MnCl2, 0.01% BSA, and 6 ug/ml PK7, in a buffer of 20 mM Tris-HCl (pH 7.5). The enzyme itself was the only substrate present (since autophosphorylation occurs); 100 uM 1NA-PP1 was used as a control inhibitor. Incubation time was 3 hours.
T2 sequence (O96214 whole entry): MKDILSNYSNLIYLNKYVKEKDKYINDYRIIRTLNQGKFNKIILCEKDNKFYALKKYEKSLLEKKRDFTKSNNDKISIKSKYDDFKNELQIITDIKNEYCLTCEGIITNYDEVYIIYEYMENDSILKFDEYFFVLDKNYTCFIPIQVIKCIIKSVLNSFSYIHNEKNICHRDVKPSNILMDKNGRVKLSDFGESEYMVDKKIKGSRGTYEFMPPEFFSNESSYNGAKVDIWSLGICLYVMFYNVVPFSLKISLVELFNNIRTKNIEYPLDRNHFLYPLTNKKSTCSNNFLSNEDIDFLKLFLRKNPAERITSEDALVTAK

[3] = target: T3, Mitogen-activated protein kinase (Plasmodium falciparum, UniProt Q25917); assay: Final concentrations were 1 uM ATP, 0.5 mM DTT, 1 mM MgCl2, 0.5 mg/mL BSA, and 10 ug/ml MAP2 in a buffer of 50 mM HEPES (pH 7.0). 0.5 mg/mL histone III-S served as the substrate (13); 100 uM AMP-PNP, an ATP analog, was used as a control inhibitor. Incubation time was 4 hours.
T3 sequence (Q25917 whole entry): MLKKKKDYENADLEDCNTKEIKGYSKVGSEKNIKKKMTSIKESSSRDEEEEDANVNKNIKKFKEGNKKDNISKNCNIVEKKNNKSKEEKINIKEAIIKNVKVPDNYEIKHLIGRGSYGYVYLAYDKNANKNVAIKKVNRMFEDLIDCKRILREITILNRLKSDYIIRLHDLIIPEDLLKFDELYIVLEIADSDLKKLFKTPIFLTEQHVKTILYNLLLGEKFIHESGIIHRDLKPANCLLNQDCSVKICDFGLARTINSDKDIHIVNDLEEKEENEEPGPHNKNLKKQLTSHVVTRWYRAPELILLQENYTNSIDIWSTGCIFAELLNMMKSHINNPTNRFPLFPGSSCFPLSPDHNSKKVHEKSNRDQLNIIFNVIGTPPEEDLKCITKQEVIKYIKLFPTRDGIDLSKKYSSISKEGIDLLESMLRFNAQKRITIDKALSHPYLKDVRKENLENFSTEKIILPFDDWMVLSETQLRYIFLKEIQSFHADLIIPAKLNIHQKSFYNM

[4] = target: T4, Cdk-related protein kinase 6 (Plasmodium falciparum, UniProt O77239); assay: Final concentrations were 1.5 uM ATP, 5 mM MnCl2, and 15 ug/ml PK6 in a buffer of 100 mM Tris-HCl (pH 7.5). 50 ug/mL MBP was provided as the substrate; 10 uM staurosporine was used as a control inhibitor. Incubation time was 3 hours and 40 minutes.The catalytic activity of each kinase was considered proportional to ATP consumed, as determined from measurements of residual [ATP] with the luciferase-based reagent Kinase-Glo (Promega) following incubation. Luminescence (proportional to residual [ATP]) was measured on the plate readers FLx800 (BioTek Instruments, Winooski, VT, USA) and MicroBeta2.
T4 sequence (O77239 whole entry): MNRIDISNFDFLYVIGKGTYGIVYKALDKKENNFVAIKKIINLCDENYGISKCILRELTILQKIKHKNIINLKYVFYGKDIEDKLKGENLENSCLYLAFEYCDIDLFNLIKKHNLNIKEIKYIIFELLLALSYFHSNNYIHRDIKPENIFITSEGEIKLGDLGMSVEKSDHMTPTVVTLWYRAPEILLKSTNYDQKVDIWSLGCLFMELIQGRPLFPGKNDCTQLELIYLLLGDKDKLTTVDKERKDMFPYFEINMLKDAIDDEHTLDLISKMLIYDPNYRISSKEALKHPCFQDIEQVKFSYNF

Proline--tRNA ligase = target: T5, Proline--tRNA ligase (Plasmodium falciparum (isolate 3D7), UniProt Q8I5R7); assay: MMV: ProRS recombinant Plasmodium falciparum Prolyl-tRNA-synthetase, assay with yeast tRNA, ATP, and proline and 3 uM MMV malaria box compound, assay read out with kinase glo as % inhibition.
T5 sequence (Q8I5R7 whole entry): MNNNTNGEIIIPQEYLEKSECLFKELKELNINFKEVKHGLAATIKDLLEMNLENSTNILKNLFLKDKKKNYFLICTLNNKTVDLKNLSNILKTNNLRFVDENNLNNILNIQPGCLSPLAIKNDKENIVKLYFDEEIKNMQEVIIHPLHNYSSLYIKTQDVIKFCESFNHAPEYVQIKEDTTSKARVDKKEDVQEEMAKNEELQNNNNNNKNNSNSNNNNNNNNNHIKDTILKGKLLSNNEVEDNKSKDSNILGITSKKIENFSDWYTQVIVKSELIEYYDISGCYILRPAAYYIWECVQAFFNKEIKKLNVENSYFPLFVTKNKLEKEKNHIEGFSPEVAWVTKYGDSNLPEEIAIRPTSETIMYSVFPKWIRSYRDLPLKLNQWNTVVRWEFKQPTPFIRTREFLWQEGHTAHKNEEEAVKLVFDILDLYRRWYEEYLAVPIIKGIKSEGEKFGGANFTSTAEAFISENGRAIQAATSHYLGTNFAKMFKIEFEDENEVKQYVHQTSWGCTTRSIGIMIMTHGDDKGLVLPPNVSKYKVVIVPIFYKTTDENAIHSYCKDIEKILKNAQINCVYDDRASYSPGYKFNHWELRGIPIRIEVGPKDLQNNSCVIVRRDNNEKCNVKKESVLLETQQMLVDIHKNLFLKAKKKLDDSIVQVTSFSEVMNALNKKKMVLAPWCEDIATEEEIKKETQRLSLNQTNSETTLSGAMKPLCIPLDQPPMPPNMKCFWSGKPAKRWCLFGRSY

Lysine--tRNA ligase = Lysine--tRNA ligase (Plasmodium falciparum (isolate 3D7), UniProt Q8IDJ8); assay: MMV: KRS recombinant Plasmodium falciparum Lysyl-tRNA-synthetase, assay with yeast tRNA, ATP, and lysine and 3 uM MMV malaria box compound, assay read out with kinase glo as % inhibition.
[5] = target: Calcium-dependent protein kinase 1 (Plasmodium falciparum, UniProt P62344); assay: MMV: CDPK1 Protein kinase inhibition assay using recombinant PfCDPK1, syntide 2 peptide substrate, ATP and KinaseGlo to measure % inhibition at 1 uM MMV box compound.
Sequence of Calcium-dependent protein kinase 1 (P62344 whole entry): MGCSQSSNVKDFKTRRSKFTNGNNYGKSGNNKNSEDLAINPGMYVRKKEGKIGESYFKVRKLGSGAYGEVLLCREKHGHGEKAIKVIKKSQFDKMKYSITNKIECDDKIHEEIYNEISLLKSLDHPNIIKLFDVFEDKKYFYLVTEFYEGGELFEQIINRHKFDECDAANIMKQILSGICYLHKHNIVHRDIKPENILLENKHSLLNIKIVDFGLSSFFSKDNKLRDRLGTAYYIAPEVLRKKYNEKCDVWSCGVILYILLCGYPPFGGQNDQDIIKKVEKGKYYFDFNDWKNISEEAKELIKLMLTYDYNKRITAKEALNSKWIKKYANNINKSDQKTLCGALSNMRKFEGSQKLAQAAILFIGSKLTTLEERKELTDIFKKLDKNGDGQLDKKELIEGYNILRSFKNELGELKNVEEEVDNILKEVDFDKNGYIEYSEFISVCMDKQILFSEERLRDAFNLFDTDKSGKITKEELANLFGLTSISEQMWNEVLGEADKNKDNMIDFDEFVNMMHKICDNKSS

Sequence of Lysine--tRNA ligase (Q8IDJ8 whole entry): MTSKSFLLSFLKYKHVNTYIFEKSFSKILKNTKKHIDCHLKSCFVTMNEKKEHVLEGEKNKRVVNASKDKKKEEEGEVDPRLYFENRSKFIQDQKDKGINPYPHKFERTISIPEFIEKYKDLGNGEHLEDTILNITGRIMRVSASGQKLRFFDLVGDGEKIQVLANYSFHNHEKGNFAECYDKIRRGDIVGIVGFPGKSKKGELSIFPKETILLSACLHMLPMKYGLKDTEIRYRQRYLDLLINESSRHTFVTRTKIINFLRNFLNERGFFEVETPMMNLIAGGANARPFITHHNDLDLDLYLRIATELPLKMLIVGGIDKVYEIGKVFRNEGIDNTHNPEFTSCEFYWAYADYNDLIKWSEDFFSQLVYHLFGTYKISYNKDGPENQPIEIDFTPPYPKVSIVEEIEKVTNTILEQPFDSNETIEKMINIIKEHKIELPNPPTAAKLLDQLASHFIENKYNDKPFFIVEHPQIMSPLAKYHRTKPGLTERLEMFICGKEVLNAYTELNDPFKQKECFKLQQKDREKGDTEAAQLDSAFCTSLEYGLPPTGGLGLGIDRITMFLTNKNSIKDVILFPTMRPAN

## CCOc1cc2c(cc1OCC)C(c1cc(OC)c(O)cc1Cl)NCC2 (configuration not stated)
[1]
  IC50: > 1 µM
[2]
  IC50: > 1 µM
[3]
  IC50: > 1 µM
[4]
  IC50: > 1 µM
Proline--tRNA ligase
  IC50: > 2.5 µM
Lysine--tRNA ligase
  IC50: > 2.5 µM
[5]
  IC50: > 1 µM

## COc1ccc(/C=C2/SC(=Nc3ccccc3)NC2=O)cc1
[1]
  IC50: > 1 µM
[2]
  IC50: > 1 µM
[3]
  IC50: > 1 µM
[4]
  IC50: > 1 µM
Proline--tRNA ligase
  IC50: > 2.5 µM
Lysine--tRNA ligase
  IC50: > 2.5 µM
[5]
  IC50: > 1 µM

## Cn1c(=O)c2cc(C(=O)NCCCN3CCCCCC3)sc2c2ccccc21
[1]
  IC50: > 1 µM
[2]
  IC50: > 1 µM
[3]
  IC50: > 1 µM
[4]
  IC50: > 1 µM
Proline--tRNA ligase
  IC50: > 2.5 µM
Lysine--tRNA ligase
  IC50: > 2.5 µM
[5]
  IC50: > 1 µM

## CCCOCc1cc(CN2CCN(c3cccc(Cl)c3)CC2)c(O)c2ncccc12
[1]
  IC50: > 1 µM
[2]
  IC50: > 1 µM
[3]
  IC50: > 1 µM
[4]
  IC50: > 1 µM
Proline--tRNA ligase
  IC50: > 2.5 µM
Lysine--tRNA ligase
  IC50: > 2.5 µM
[5]
  IC50: > 1 µM

## CC(=O)Nc1nnc(SCc2c(C)cc(C(C)(C)C)cc2C)s1
[1]
  IC50: > 1 µM
[2]
  IC50: > 1 µM
[3]
  IC50: > 1 µM
[4]
  IC50: > 1 µM
Proline--tRNA ligase
  IC50: > 2.5 µM
Lysine--tRNA ligase
  IC50: > 2.5 µM
[5]
  IC50: > 1 µM

## FC(F)(F)c1ccc(Nc2nnnc3ccccc23)cc1
[1]
  IC50: > 1 µM
[2]
  IC50: > 1 µM
[3]
  IC50: > 1 µM
[4]
  IC50: > 1 µM
Proline--tRNA ligase
  IC50: > 2.5 µM
Lysine--tRNA ligase
  IC50: > 2.5 µM
[5]
  IC50: > 1 µM

## CCOc1ccccc1CNC(=O)C1c2ccccc2C(=O)N(CC(C)C)C1c1cccs1 (configuration not stated)
[1]
  IC50: > 1 µM
[2]
  IC50: > 1 µM
[3]
  IC50: > 1 µM
[4]
  IC50: > 1 µM
Proline--tRNA ligase
  IC50: > 2.5 µM
Lysine--tRNA ligase
  IC50: > 2.5 µM
[5]
  IC50: > 1 µM

## Cc1ccccc1OCCSc1nc2ccc(NC(=O)c3ccccc3)cc2s1
[1]
  IC50: > 1 µM
[2]
  IC50: > 1 µM
[3]
  IC50: > 1 µM
[4]
  IC50: > 1 µM
Proline--tRNA ligase
  IC50: > 2.5 µM
Lysine--tRNA ligase
  IC50: > 2.5 µM
[5]
  IC50: > 1 µM

## CC1CCCCN1CCCNC(=O)c1ccc2c(c1)sc1nc(-c3ccc(F)cc3)cn12 (configuration not stated)
[1]
  IC50: > 1 µM
[2]
  IC50: > 1 µM
[3]
  IC50: > 1 µM
[4]
  IC50: > 1 µM
Proline--tRNA ligase
  IC50: > 2.5 µM
Lysine--tRNA ligase
  IC50: > 2.5 µM
[5]
  IC50: > 1 µM

## CCOc1cc(Br)c(C(C)NC(=O)c2cccc(OC)c2)cc1OCC (configuration not stated)
[1]
  IC50: > 1 µM
[2]
  IC50: > 1 µM
[3]
  IC50: > 1 µM
[4]
  IC50: > 1 µM
Proline--tRNA ligase
  IC50: > 2.5 µM
Lysine--tRNA ligase
  IC50: > 2.5 µM
[5]
  IC50: > 1 µM

## CN(C)c1ccc(N=Cc2ccc(N3CCOCC3)cc2)cc1
[1]
  IC50: > 1 µM
[2]
  IC50: > 1 µM
[3]
  IC50: > 1 µM
[4]
  IC50: > 1 µM
Proline--tRNA ligase
  IC50: > 2.5 µM
Lysine--tRNA ligase
  IC50: > 2.5 µM
[5]
  IC50: > 1 µM
